Experimental data reported in patent publication US20160102099A1, “ANTI-VIRAL COMPOUNDS” (Kineta, Inc., priority 2011, published 2016).
“Also recorded” adds a separate entry of the source.

Key:
[1] = tested on: human primary dendritic cells; experiment: Ex vivo cytokine expression in primary dendritic cells (Luminex/MAGPIX); format: cell-based; settings: dendritic cells, 0, 1 or 10 μM, 24 hours, supernatant, FIG. 3
Method: The activity of KIN2000 in primary immune cells was assayed to determine whether KIN2000 stimulates immune responses. In this example, cultured human primary dendritic cells were treated with 0, 1, or 10 μM of KIN2000 for 24 hours. Supernatant from treated wells was isolated and tested for levels of cytokine protein. Cytokines were detected using specific antibodies conjugated to magnetic beads and a secondary antibody that reacts with Streptavidin/Phycoerythrin to produce a fluorescent signal. The bound beads were detected and quantified using the MAGPIX® instrument (LUMINEX®) in this Example, but a similar technique can also be used to measure fluorescent protein production, such as an ELISA.

[2] = tested on: IRF-3; experiment: Immunofluorescent cytochemistry assay, IRF-3 activation and translocation to the nucleus; format: cell-based, human; settings: U2OS cells (method) / HeLa cells (figure legend), 20 hours, increasing amounts, FIG. 2A
Method: Immunofluorescent Cytochemistry Assay to Determine IRF-3 Activation and Translocation to the Nucleus.
The induction of ISG expression mediated by RIG-I is conferred by phosphorylation, dimerization, and nuclear translocation of the IRF-3 transcription factor. Cultured human U2OS cells were treated with increasing amounts of compound or equivalent amounts of DMSO diluted in media for 20 hours. Positive control wells were infected with 100 HA/mL Sendai virus for an equivalent time period. IRF-3 was detected using polyclonal rabbit serum specific to IRF-3 and a secondary antibody conjugated to DYLIGHT™ 488.
(§1) Quantification of Immunofluorescent Assays.
(§2) 96-well plates containing cultured human cells treated with compound and stained for either IRF-3 or NFκB were scanned and quantified using the ARRAYSCAN® instrument and software (Cellomics). Activation of transcription factor is evidenced by increased nuclear intensity normalized for cytoplasmic intensity, or nuclear-cytoplasmic difference.

[3] = tested on: HeLa cells; experiment: MTS assay to determine cytotoxicity; format: cell-based, human; settings: 48 hours, 0, 1, 5, 10 and 20 μM, FIG. 1C
Method: MTS Assay to Determine Cytotoxicity. Cultured human HeLa cells were treated with increasing amounts of compound or equivalent amounts of DMSO diluted in media for 48 hours to see their effect on cell viability. The proportion of viable cells was calculated using a cell viability assay that measures conversion of a tetrazolium compound (3-(4,5-dimethyl-2-yl)-5-(3-carboxymethoxyphenyl)-2-(4-sulfophenyl)-2H-tetrazolium, inner salt; the MTS assay) to a colored formazan compound in live cells. The conversion of MTS to formazan was detected in a 96-well microtiter plate reader, and the resulting optical densities could then be plotted directly to estimate cell viability. CELLTITER 96® AQueous One Solution Cell (Promega) was the one-step assay used, according to the manufacturer's protocol, and cells were incubated for three hours in the presence of reagent before O.D. reading was done. KIN2000 was diluted to final concentrations of 0, 1, 5, 10, and 20 μM in media containing 0.5% DMSO. Negative control wells contained no compound, and positive control for cytotoxicity was examined using an EMCV infection which causes 100% cytopathic effect. Each compound concentration and control was done in triplicate wells.

[4] = tested on: ISG54 promoter; experiment: Luciferase reporter assay, ISG54 promoter; format: cell-based; settings: stably transfected human cells, 18-20 hours with compound, FIG. 1A
Method: (§3) Luciferase Assay to Identify Active Compounds. Cultured human cells that were stably transfected with luciferase reporter gene driven by RIG-I responsive promoter (IFNβ, ISG56, or ISG54 promoter) were seeded and allowed to grow overnight. The compound “KIN2000” was then added and cells were grown in the presence of KIN2000 for 18-20 hours. Steady-Glo luciferase substrate (Promega) was added and luminescence was read on a luminometer (Berthold).

[5] = tested on: β-actin promoter; experiment: Actin counterscreen (β-actin-luciferase reporter); format: cell-based, human; settings: specificity counterscreen, FIG. 1B
[6] = tested on: IFNβ promoter; experiment: Luciferase reporter assay, IFNβ promoter; format: cell-based; settings: stably transfected human cells, 18-20 hours with compound, FIG. 1A
Method: as §3

[7] = tested on: NFκB; experiment: Immunofluorescent cytochemistry assay, NFκB activation; format: cell-based, human; settings: HeLa cells, 20 hours, increasing amounts, FIG. 2B
Method: Immunofluorescent Cytochemistry Assay to Determine NFκB Activation.
The innate immune response dependent on RIG-I also activates the NFκB transcription factor and thus increases nuclear levels. Cultured human HeLa cells were treated with increasing amounts of compound or equivalent amounts of DMSO diluted in media for 20 hours. Positive control wells were infected with 100 HA/mL Sendai virus for an equivalent time period. NFκB was detected using, in this example, monoclonal mouse antibody specific to the p65 subunit of NFκB and a secondary antibody conjugated to DyLight 488.
as §1, §2

[8] = tested on: ISG56 promoter; experiment: Luciferase reporter assay, ISG56 promoter; format: cell-based; settings: stably transfected human cells, 18-20 hours with compound, FIG. 1A
Method: as §3

- induction of ISG54-luciferase reporter gene [4]: dose-dependent induction
- induction of IFNβ-luciferase reporter gene [6]: dose-dependent induction
- induction of ISG56-luciferase reporter gene [8]: dose-dependent induction
Compound: Cn1c(=O)c2c(SCc3cccc(C(F)(F)F)c3)nc(-c3ccco3)nc2n(C)c1=O [KIN2000]
- IL-8 expression [1]: induce expression; also recorded: dose-dependent expression
- MCP-1 (CCL2) expression [1]: induce expression; also recorded: dose-dependent expression
- MIP-1α (CCL3) expression [1]: induce expression; also recorded: dose-dependent expression
- MIP-1β (CCL4) expression [1]: induce expression; also recorded: dose-dependent expression
- IRF-3 translocation to the nucleus (nuclear-cytoplasmic difference) [2]: dose dependent increase; also recorded: dose-dependent increase
- cytotoxicity (MTS cell viability) [3]: no evident cytotoxicity; also recorded: did not show evident cytotoxicity
- induction of non-specific β-actin promoter (luciferase reporter) [5]: did not induce; also recorded: does not induce
- NFκB translocation (nuclear-cytoplasmic difference) [7]: dose dependent increase; also recorded: dose-dependent increase
